“Also recorded” adds a separate entry of the source. No end group written: not given here. Where only a bound is given, the exact number is not on record here.

For one series, the system named is HEP1DBP. Briefly: Cleavage of artificial protein substrate HEP1DBP (SDS-polyacrylamide gel electrophoresis). The series is classed as biochemical. The text has this:
Recombinant protein substrates that resemble natural virion precursors, such as pVI, can be produced in E. coli by genetic engineering methods similar to those used for expression of recombinant adenovirus proteinase. The recombinant substrate may have an artificial leader sequence that can be removed by proteinase-mediated cleavage. The leader can be designed to aid in purification of the substrate; thus the recombinant substrate can be produced and purified much more efficiently than natural adenovirus substrates. Recombinant protein substrates also serve as prototypes of potential commercial products, showing that the adenovirus proteinase will remove an artificial leader sequence from a recombinant protein that is not related to any adenovirus protein. The first artificial protein substrate was called HEP1DBP. It consists of a 17 amino acid leader (Met-Ala-Ser-Met-Thr-Gly-His-His-His-His-His-His-Gly-Met-Ser-Gly-Gly-) (SEQ ID NO: 37) attached to the initiating methionine of the 232 amino acid DNA binding protein (DBP), of bacteriophage T7. The T7 DBP is the product of gene 2.5. The recombinant proteinase substrate is produced by induction of a pET expression plasmid called pT7HEP1DBP (also called pT7HIS2) (FIG. 7A and Example 11); the predicted sequence of the expressed substrate is given in Table 1. The leader sequence contains six consecutive histidine residues to permit purification by metal affinity chromatography in a manner analogous to purification of the adenovirus proteinase. Immediately preceding the methionine corresponding to the initiation site of the T7 DBP is the tetra-amino acid element -Met-Ser-Gly-Gly- (SEQ ID NO: 38). This segment corresponds to the proteinase recognition sequence in the adenovirus virion precursor polypeptide pVI. The size of the leader sequence was chosen so that the substrate precursor HEP1DBP, and the predicted major product after cleavage, the T7 DBP, could easily be distinguished by SDS-polyacrylamide gel electrophoresis.
When purified HEP1DBP was incubated with disrupted wild-type adenovirus 2 virions, it was cleaved, as determined from the change in its mobility during SDS-polyacrylamide gel electrophoresis. No cleavage was observed when incubation was with disrupted H2ts1 virions alone.
Plasmid pT7HEP1DBP (5346 bp) is a pET-3 derivative that expresses the […] T7 gene 2.5 protein (a single-stranded DNA binding protein) attached to a 17-amino acid leader sequence (FIG. 19). The 249-amino acid HEP1DBP polypeptide serves as an artificial substrate for the adenovirus EP; the leader peptide, MASMTGHHHHHHGMSGG- (SEQ ID NO: 37), ends with the Ad2 proteinase recognition sequence -MSGG- (SEQ ID NO: 38) [Anderson, C. […]

Series [1] deals with Ad2 major core protein precursor, pVII. As to the kind of experiment: Assay of adenovirus proteinase activity in crude extracts: cleavage of [35S]-methionine-labeled pVII (SDS-PAGE, autoradiography). The series is classed as biochemical, adenovirus type 2. The settings on record: for Proteinase activity (cleavage of pVII): log phase cells. The procedure:
The expression products of the above-described Ad2 and Ad12 proteinase plasmids were tested for their ability to cleave the Ad2 major core protein precursor, pVII, in crude extracts from adenovirus-infected cells. The extracts were obtained from human cells infected with the temperature-sensitive mutant Ad2 strain, H2ts1, which has a defective proteinase. As described below, adenovirus proteinase activity requires the presence of two cofactors. […] The recombinant proteinases were also characterized by peptide sequence analysis of their amino-termini.
Bacterial extracts were incubated with the radiolabeled substrate (pVII). Samples were removed at different times and analyzed by SDS-PAGE and autoradiography. […] Appearance of the processed VII band and concurrent decrease of the precursor pVII band indicates proteinase activity. Radiolabeled proteins of Ad2 virions were run on the gel to indicate the positions of pVII, VII, and other virion components (lane a). Extracts from Ad2 -infected HeLa cells were assayed as a positive control for proteinase activity (lane b).
Adenovirus proteinase activity was monitored by the cleavage of [^35 S]-methionine-labeled major core precursor (pVII) essentially as described (Bhatti and Weber, Biochem. Biophys. Res. Comm. 81: 973-797, (1978)). The proteinase substrate was prepared from Ad2Ad2tsl-infected HeLa cells grown at 39° C. and labeled with [^35 S]-methionine (200 μCi/plate) from approximately 28 to 30 hours after infection. Labeled cultures were harvested, washed twice in Phosphate Buffered Saline (PBS), resuspended in 1.0 ml of 10 mM sodium phosphate buffer, pH 7.4, per plate, and sonicated for 40 seconds using a water-cooled sonicator horn (Branson Sonic Power Co., Danbury, Conn.). The extract was then centrifuged at 12,000×g for 10 minutes, and the pellet was resuspended in 10 mM phosphate buffer.
Extracts of Ad-infected cells, harvested 40 hours after infection at 37° C. were used as a source of viral proteinase. Harvested cultures were washed twice with PBS, resuspended in 10 mM phosphate buffer, frozen and thawed once, and centrifuged at 12,000×g for 10 minutes. Pellets were resuspended in 1.0 ml phosphate buffer, pH 7.4, per 10^6 infected cells and sonicated 4×10 seconds; samples were stored at -70° C. Bacterial extracts were prepared by lysozyme-EDTAtreatment of cultures harvested 2 hours after IPTG induction.
Assays were performed by mixing equal volumes of [^35 S]-labeled substrate and test extract and incubating at 37° C. At different times, 25 μl samples were removed, mixed with 25 μl of SDS Sample Buffer, heated to 90° C., and analyzed by SDS-polyacrylamide gel electrophoresis and autoradiography as described (Anderson et al., J. Virol. 12: 241-252 (1973).
Recombinant proteinase polypeptides were assayed for proteinase activity by incubating whole-cell extracts of BL21 (DE3), pT7AD23K5/BL21(DE3), and pT7AD23k6/BL21(DE3), prepared as described above, with extracts of [^35 S]-methionine-labeled Ad2 virion precursor polypeptides. Incubation of the labeled extract at 37° C. for up to 20 hours, alone or with an extract prepared from uninfected HeLa cells, produced little change in the pattern of labeled polypeptides.

The target in series [2] is T1, Ad2 proteinase (rEP protein) (Human adenovirus C serotype 2, UniProt P03252).
T1 construct: Plasmid pT7AD23k6 contains the 204 codons of the Ad2 proteinase reading frame plus a translational termination codon; made in house; host or cells: E. coli BL21(DE3)
Format: biochemical, human adenovirus type 2. The settings on record: for Rate (pmol substrate min^-1) / Stimulation (fold): rate in presence of effector divided by rate in its absence: 8.3 nM rEP protein, 98 nM pVIc peptide; for Rate (pmol substrate min^-1): 1 μM (Leu-Arg-Gly-Gly-NH)2-rhodamine, effector at concentration giving maximal stimulation; for Stimulation (fold): rate in presence of effector divided by rate in its absence: 1 μM substrate; for Effector concentration that gave maximal stimulation of proteinase activity: moles of molecules per liter, 8.3 nM rEP, 98 nM pVIc. The text has this: The nature of the proteinase cofactor(s) was pursued with the aid of the second assay, which utilizes the substrate (Leu-Arg-Gly-Gly-NH)2 -rhodamine. The design of this substrate was based on two facts. (1) It was known that the proteinase present in disrupted Ad2 virions would cleave small peptides with sequence similar to that found at natural cleavage sites in adenovirus virion precursors (Webster et al., 1989). (2) Cleavage of either tetra-peptide sequence from the substituted rhodamine substrate produces a very large increase, up to a 3500-fold, in fluorescence. Under conditions where only a small fraction of the rhodamine substrate is cleaved, the increase in fluorescence is proportional to the amount of proteinase present and to the time of incubation. Thus, the fluorescence assay provides a quantitative method for assessing proteinase activity that is more sensitive convenient and rapid than the gel electrophoresis assay.
After determining the identity of the two cofactors, reconstitution of adenovirus proteinase activity in vitro with purified components was accomplished. […] In (a), Assays in 1 ml contained 1.2 nM rEP protein, 11.9 pM Ad2 DNA and the indicated concentrations of pVI-c peptide. The rate of substrate hydrolysis is the rate in the reaction minus the rate with the rEP protein and Ad2 DNA alone which was 0.068 pmol min^-1. In (b), Assays in 1 ml contained 1.2 nM rEP protein, 36 nM pVI-c peptide and the indicated concentrations of Ad2 DNA. The rate of substrate hydrolysis is the rate in the reaction minus the rate with the rEP protein and pVI-c alone which was 2.76 pmol min^-1. The concentration of (Leu-Arg-Gly-Gly-NH)2 -rhodamine was 5 μM, and its rate of hydrolysis to Leu-Arg-Gly-Gly-NH-rhodamine was determined by measuring the increase in fluorescence every 3 minutes for 15 minutes. The pVI-c peptide was assembled in a peptide synthesizer.
Assays were performed in 400 μl of Assay Buffer (50 mM Tris-HCl, pH 7.4, 25 mM NaCl, 10 mM octylglucoside, and 1 mM dithiothreitol). The concentration of the fluorogenic substrate, (Leu-Arg-Gly-Gly-NH)2 -rhodamine was 5 μM. When present, the number of disrupted virus particles was 10^10 and the amount of recombinant proteinase was 0.12 mAU280 nm. […] After 30 minutes at 37° C., a 360 μl aliquot of the reaction was added to 340 μl of Assay Buffer minus octylglucoside, and the increase in fluorescence was measured. The excitation wavelength was 492 nm and the emission wavelength was 523 nm, both with a bandwidth of 5 nm. The change in fluorescence, ΔF, is the magnitude of the fluorescence from the sample minus the magnitude of the fluorescence from an identical solution without enzyme.
DNase-treated disrupted virus was obtained by incubating 2×10^10 disrupted virions in 20 μl containing 0.1M NaAc, pH 5.0, 5 mM MgCl2, and 55 μg/ml DNase I for 4 minutes at 25° C. Then, EDTA to 23 mM and dithiothreitol to 2.3 mM were added, and the reactions were heated at 56° C. for 1 minute to inactivate the DNase.
For the assays shown in FIG. 8, the DNase reactions were diluted by the addition of 380 μl Assay Buffer containing the substrate, the proteinase and either 2×10^10 molecules of Ad2 DNA (+) or no DNA (-). After 30 minutes at 37° C., 360 μl of the reactions were added to 340 μl Assay Buffer minus octylglucoside and the increase in fluorescence was measured. The assays in (B) and (C) were identical to those in (A) except that in (B) H2ts1 virus was added after the DNase was inactivated (i-DNase) and in (C) no Dnase was present. In (D) recombinant proteinase plus 10^10 molecules of Ad2 DNA were preincubated for 10 minutes at 37° C. before adding substrate.
.dagger. All assays contained 8.3 nM rEP protein, 98 nM pVIc peptide, and
1 μM (Leu--Arg--Gly--Gly--NH)2rhodamine. The rate of substrate

T1 sequence (P03252 whole entry): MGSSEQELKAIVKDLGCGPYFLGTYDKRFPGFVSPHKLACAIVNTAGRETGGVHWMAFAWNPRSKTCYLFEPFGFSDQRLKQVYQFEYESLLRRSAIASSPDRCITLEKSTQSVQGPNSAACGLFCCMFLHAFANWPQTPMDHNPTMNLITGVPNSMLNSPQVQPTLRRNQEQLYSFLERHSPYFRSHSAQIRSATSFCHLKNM

Turning to “23K8: recombinant wild-type Ad2 proteinase from pT7AD23K8 (gene with AflII site)”, the “Cleavage of HEP1DBP” value with HEP1DBP (incubated together with disrupted H2ts1 virions) is “cleavage was obtained”; in the series with HEP1DBP (incubated with HEP1DBP alone, no added cofactors), “no cleavage”. Further, in series [1] (Induced, log phase), the Activity/Conditions result was “Active”. Besides, the “Proteinase activity (cleavage of pVII)” value in series [1] (extracts of IPTG-induced) is recorded as “active”.
As for `N[C@@H](CC(=O)O)C(=O)O` [Aspartic acid], in series [2], the “Rate (pmol substrate min^-1)” value turned out to be 2.1 pmol substrate min^-1, the “Stimulation (fold): rate in presence of effector divided by rate in its absence” value was under 1.0 fold and the “Effector concentration that gave maximal stimulation of proteinase activity” value worked out at 1380 nM.
“23K10: recombinant Ad2 proteinase from pT7AD23K10, same reading frame as pT7AD23k6”: the Activity/Conditions entry in series [1] (Induced, log phase) is “Active”. The “Proteinase activity (cleavage of pVII)” value in series [1] (extracts of IPTG-induced) was “active”.
For the compound Heparin, in series [2], the “Rate (pmol substrate min^-1)” value is on record as 12.9 pmol substrate min^-1, the “Stimulation (fold): rate in presence of effector divided by rate in its absence” value came to 4.7 fold and the “Effector concentration that gave maximal stimulation of proteinase activity” value is on record as 33 nM. In series [2] (in vitro), the “Substitution for Ad2 DNA as cofactor of proteinase activity” value is “substituted for Ad2 DNA”.
Consider “23K11: Ad2 proteinase variant, E5 QELKAIVK13 deleted, 194 amino acids”, for which the “Proteinase activity (cleavage of pVII)” value in series [1] (either uninduced, stationary or induced) is reported as “No processing activity was detected; also recorded: No proteinase activity”; in series [1] (extracts of IPTG-induced) it was “not active”. Moreover, in series [1] (no growth conditions printed), the Activity/Conditions result was “Inactive”.
Take “23K13: Ad2 proteinase variant with GHHHHHHNM at carboxy-terminus”: the Activity/Conditions result in series [1] (Induced, log phase) was “Active”. Moreover, in series [1] (extracts of IPTG-induced), the “Proteinase activity (cleavage of pVII)” value is recorded as “as active as 23k6”.
Regarding “CGYGPKKKRKVGG [peptide similar in character to pVI-c]”, the “Substitution for the pVI-c peptide as cofactor” value in series [2] is given as “did not substitute”.
As to `N[C@@H](CCC(=O)O)C(=O)O` [Glutamic acid], in series [2], the “Rate (pmol substrate min^-1)” value was found to be 2.3 pmol substrate min^-1, the “Stimulation (fold): rate in presence of effector divided by rate in its absence” value was under 1.0 fold and the “Effector concentration that gave maximal stimulation of proteinase activity” value was determined as 780 nM.

For the origin of these results see US5935840A, “Activated recombinant adenovirus proteinases” (priority 1995, dated 1999).
